Activity calls are given as the source filed them. Where only a bound is given, the exact number is not on record here.

Usually AC50 stands for the midpoint of the concentration-response curve, whichever way the signal moves. For orientation: IC50 means the point on the concentration scale where inhibition reaches its midpoint. What is called IC90 is the concentration at which the effect reaches the 90% level. One may read the EC50 as the concentration at which the effect is half-maximal.

The nature of series [1]: OVCAR8 cell viability loss – plate reader, dry powder samples, PAX8 project, dose response (AID 743197). It is filed as functional, cell-based. The conditions noted are these: OVCAR-8.
The next series has as its target Paired box protein Pax-8 (Homo sapiens, UniProt Q06710). The experiment in a line: PAX8 transcriptional activity inhibition in RMG-I – RMG-I cells, luciferase, cherry-pick, dose response (AID 687027).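 Also: luciferase reporter driven by Pax8 target thyroperoxidase promoter measured by SteadyGlo luminescence.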 The series is classed as functional, cell-based.
The nature of series [2]: CMV-driven luciferase expression suppression in HEK293 – cell-based, luminescence, dry powder, counter-screen for Pax8 inhibitor project, dose response (AID 743020). The series is classed as functional. On the technique in general: The purpose of a counterscreen is to sort out artefacts and off-target activity.
Series [3] concerns the target Kappa-type opioid receptor (Homo sapiens, UniProt P41145). The experiment in a line: kappa opioid receptor antagonism potency – cell-based, fluorescence, dose response, late-stage follow-up (AID 652032). It is filed as functional.
A short description of series [4]: growth inhibition of replicating M. tuberculosis, dose response, counter-screen, dry powder, IC90 (AID 651617). It is filed as functional. The conditions noted are these: Mycobacterium tuberculosis.
Series [5] in a line: inhibitors of non-replicating M. tuberculosis, dose response, luciferase, dry powder (AID 651619). The series is classed as functional. The conditions noted are these: Mycobacterium tuberculosis.
Series [6] is described as follows: viability loss in HEK293T cells – cell-based, CellTiter-Glo luminescence, dry powder, set 6, cytotoxicity control, dose response (AID 651949). The series is classed as functional. The conditions noted are these: HEK293. Background: In ATP-based viability assays light output follows the ATP content of the culture.
Series [7] is described as follows: Luminescence Cell-Based Dose Response to Identify Activators of 5'UTR Stem-Loop Driven Prion Protein mRNA Translation in H4-C Neuroglioblastoma Cells. [Related pubchem assays: 1829 (Project Summary), 1814 (Primary HTS)]. The series is classed as functional.
Series [8] can be described thus: Luminescence Cell-Based Dose Response HTS to Identify Activators of Luciferase Translation or Activity in H4 […] Cells. [Related pubchem assays: 1829 (Project Summary), 1814 (Primary HTS)]. The series is classed as functional.
Series [9] can be described thus: Luminescence Cell-Based Dose Response to Identify Activators of Luciferase Translation or Activity in H4-C Neuroglioblastoma Cells. [Related pubchem assays: 1829 (Project Summary), 1814 (Primary HTS)]. It is filed as functional.
A short description of series [10]: Luminescence Cell-Based Dose Confirmation to Identify Activators of 5'UTR Stem-Loop Driven Alpha-Synuclein mRNA Translation in H4 Neuroglioblastoma Cells. [Related pubchem assays: 1829 (Project Summary), 1814 (Primary HTS)]. It is filed as functional.
A further series concerns the target Cytochrome P450 2C9 (Homo sapiens, UniProt P11712).
Series [11] can be described thus: inhibitors of non-replicating M. tuberculosis, dose response, luciferase, dry powder (AID 651620). The series is classed as functional. The conditions noted are these: Mycobacterium tuberculosis.
The subject of the next series is HeLa. The experiment in a line: viability loss in HeLa cells – cell-based, ATP luminescence, cherry-pick samples, cytotoxicity control, dose response (AID 687004). It is filed as functional. The conditions noted are these: Homo sapiens.
A short description of series [12]: viability loss in HepG2 hepatoma cells – cell-based, ATP luminescence, cherry-pick, activator set 2, cytotoxicity control, dose response (AID 1053143). It is filed as functional.
Another series has as its system Streptococcus. In words: GAS UMAA2166 growth inhibition – luminescence, BacTiterGlo, counter-screen for streptokinase expression inhibitor project, dose response (AID 1915).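 Also: potency for reduction of bacterial viability or growth.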 It is filed as functional, organism-based.
Series [13] in a line: Trypanosoma cruzi growth suppression in host cells – NIH3T3 host cells, beta-gal luminescence, confirmation (AID 2044).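 Also: intracellular parasites grown in NIH/3T3 mouse fibroblasts as host cells; luminescent beta-galactosidase reporter signal from transgenic T. cruzi replicating inside host cells; inhibitors lower the luminescence signal.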 The series is classed as functional, cell-based.
Series [14] relates to Streptococcus sp. 'group A'. In words: Streptococcus pyogenes SK(-)GAS viability under kanamycin – luminescence, BacTiterGlo, confirmation, counter-screen for streptokinase expression inhibitor project, dose response (AID 1900). It is filed as functional, organism-based.
The nature of series [15]: NIH3T3 cell viability loss – ATP luminescence, mouse fibroblasts, counter-screen, dose response (AID 2010).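 Also: cells exposed to compound for about 90 hours before reading.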 It is filed as functional, cell-based.
Another series deals with NS3 (Hepatitis C virus, UniProt A3EZJ3). The experiment in a line: NS3h DNA-binding inhibition IC50 – biochemical, fluorescence polarization, ChemBridge library, dose response (AID 743264). On the technique in general: In fluorescence polarisation assays a small probe gives low polarisation when free and higher when bound to something large.
Sequence of NS3 (A3EZJ3 whole entry): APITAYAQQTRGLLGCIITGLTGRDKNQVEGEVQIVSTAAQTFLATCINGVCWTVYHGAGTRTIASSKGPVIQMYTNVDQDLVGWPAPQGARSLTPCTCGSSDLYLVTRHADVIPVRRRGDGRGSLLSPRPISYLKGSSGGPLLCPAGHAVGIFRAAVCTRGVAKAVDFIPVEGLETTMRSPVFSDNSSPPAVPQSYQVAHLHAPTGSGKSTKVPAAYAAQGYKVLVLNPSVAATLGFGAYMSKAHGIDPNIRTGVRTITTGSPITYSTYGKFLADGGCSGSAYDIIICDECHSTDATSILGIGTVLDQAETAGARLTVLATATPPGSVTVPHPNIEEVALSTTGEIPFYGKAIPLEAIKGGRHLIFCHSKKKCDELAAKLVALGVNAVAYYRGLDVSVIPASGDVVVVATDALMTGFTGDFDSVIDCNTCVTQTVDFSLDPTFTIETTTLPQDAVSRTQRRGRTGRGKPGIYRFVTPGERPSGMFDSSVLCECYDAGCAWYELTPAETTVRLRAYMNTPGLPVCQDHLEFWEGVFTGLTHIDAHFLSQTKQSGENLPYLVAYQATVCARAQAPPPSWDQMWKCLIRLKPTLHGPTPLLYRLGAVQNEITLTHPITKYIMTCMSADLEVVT
Series [16] addresses Fructose-bisphosphate aldolase (Mycobacterium tuberculosis, UniProt P9WQA3). The experiment in a line: Fluorescence-based biochemical high throughput dose response assay for inhibitors of the fructose-bisphosphate aldolase (FBA) of M. tuberculosis. It is filed as functional.
The target in series [17] is COUP transcription factor 2 (Homo sapiens, UniProt P24468). In words: Luminescence-based cell-based high throughput dose response assay to identify inhibitors of COUP-TFII (NR2F2). The series is classed as functional.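 Also: HEK293 cells transiently cotransfected with COUP-TFII expression vector and reporter; luciferase reporter luminescence driven by COUP-TFII from the pX2-168 reporter plasmid.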
Sequence of COUP transcription factor 2 (P24468 whole entry): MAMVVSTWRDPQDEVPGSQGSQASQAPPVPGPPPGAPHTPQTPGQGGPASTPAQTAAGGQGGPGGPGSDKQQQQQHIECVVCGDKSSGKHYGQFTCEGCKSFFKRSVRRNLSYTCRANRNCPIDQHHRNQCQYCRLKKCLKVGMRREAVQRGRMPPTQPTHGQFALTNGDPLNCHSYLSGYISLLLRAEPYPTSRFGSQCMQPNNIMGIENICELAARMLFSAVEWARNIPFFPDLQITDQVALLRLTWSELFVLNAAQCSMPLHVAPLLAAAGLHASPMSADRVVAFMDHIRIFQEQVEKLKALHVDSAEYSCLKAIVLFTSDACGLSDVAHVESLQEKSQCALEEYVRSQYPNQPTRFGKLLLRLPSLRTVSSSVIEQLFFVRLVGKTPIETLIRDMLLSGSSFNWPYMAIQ
Series [18] in a line: Late stage assay provider results from the probe development effort to identify inhibitors of the Plasmodium falciparum M18 Aspartyl Aminopeptidase (M18AAP): radiolabel-based cell-based dose response assay to identify compounds that inhibit P. falciparum growth in RBCs, Set 2.. It is filed as functional.

Sequence of Cytochrome P450 2C9 (P11712 whole entry): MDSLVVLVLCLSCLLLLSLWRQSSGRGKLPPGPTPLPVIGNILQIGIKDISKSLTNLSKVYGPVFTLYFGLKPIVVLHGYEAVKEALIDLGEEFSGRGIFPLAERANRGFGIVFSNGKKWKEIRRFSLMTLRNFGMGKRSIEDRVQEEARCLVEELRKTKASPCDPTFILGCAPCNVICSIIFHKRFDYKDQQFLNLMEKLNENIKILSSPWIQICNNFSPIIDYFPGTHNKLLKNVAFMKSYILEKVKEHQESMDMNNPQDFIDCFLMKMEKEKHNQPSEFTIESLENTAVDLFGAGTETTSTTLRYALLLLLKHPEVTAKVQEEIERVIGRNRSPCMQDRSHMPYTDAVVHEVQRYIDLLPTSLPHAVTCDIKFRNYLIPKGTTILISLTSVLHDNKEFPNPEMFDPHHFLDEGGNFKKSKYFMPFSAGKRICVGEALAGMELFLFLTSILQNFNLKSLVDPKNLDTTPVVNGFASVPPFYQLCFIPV
Sequence of Kappa-type opioid receptor (P41145 whole entry): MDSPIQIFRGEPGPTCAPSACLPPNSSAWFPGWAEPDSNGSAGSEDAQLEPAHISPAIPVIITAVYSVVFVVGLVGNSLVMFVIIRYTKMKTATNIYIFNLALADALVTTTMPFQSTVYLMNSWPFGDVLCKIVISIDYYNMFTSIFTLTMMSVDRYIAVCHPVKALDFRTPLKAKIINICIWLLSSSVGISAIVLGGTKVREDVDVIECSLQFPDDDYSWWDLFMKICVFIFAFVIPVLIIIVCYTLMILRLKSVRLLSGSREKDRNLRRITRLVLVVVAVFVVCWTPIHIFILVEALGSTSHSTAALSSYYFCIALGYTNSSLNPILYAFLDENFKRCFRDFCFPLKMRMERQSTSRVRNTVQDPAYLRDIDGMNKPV
Sequence of Paired box protein Pax-8 (Q06710 whole entry): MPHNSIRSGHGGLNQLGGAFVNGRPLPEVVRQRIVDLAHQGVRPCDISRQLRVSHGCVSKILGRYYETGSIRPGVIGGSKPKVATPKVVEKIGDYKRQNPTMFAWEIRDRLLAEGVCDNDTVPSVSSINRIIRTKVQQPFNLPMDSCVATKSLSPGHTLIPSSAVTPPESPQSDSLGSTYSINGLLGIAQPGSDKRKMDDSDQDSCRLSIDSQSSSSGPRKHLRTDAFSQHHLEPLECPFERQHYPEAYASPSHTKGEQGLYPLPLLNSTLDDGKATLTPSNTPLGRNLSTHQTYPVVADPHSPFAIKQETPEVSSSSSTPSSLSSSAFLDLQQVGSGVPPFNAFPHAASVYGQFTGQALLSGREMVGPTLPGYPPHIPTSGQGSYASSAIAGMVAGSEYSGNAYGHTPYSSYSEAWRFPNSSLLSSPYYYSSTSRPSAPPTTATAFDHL
Sequence of Fructose-bisphosphate aldolase (P9WQA3 whole entry): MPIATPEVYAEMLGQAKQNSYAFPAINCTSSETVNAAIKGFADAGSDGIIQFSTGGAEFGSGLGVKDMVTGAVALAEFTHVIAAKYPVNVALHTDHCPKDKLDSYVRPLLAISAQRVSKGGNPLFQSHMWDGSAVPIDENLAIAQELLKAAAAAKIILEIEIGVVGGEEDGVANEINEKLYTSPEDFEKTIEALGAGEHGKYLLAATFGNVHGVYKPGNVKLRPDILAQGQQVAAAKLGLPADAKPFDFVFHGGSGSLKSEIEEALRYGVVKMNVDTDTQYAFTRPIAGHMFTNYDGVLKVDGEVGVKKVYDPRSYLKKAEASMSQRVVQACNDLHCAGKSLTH

With `COc1ccc(S(=O)(=O)Nc2ccc3c(c2)CC(=O)N([C@H](C)CO)C[C@H](C)[C@@H](CN(C)Cc2ccc(C(F)(F)F)cc2)O3)cc1`, the AC50 in [1] is > 70 µM (inactive); at Paired box protein Pax-8 it was 19.3 µM (active); in [2], 49.3 µM (active).
`COC(=O)c1cc(Br)cnc1N1CCC(N)CC1`: in series [3], the IC50 was 21.8 µM (inactive).
Consider `c1ccc(-c2nnc(SCCC3OCCCO3)o2)cc1`, for which the IC90 in series [4] is 62 µM (active); in series [5], 8 µM (active); in series [11], 8 µM (active). In addition, the AC50 in [6] was > 52 µM (inactive); at Cytochrome P450 2C9 it was “inconclusive”. For the same molecule, the EC50 was 1.55 µM (active) in series [7], 0.936 µM (active) in series [8], 0.852 µM (active) in series [9] and 0.604 µM (active) in series [10].
Turning to `COc1ccc(C2=Nc3ccccc3NC(=O)C2N(C(=O)c2cc3ccccc3[nH]2)c2ccccc2)cc1` (stereo not drawn), the AC50 in the series on HeLa was > 52 µM (inactive).
On to `CCOc1ccc2c(c1)C(=NNC(=O)c1ccncc1)c1cc(OCC)ccc1-2`, for which, in series [12], the half-maximal activity concentration (AC50) was 26 µM (active). Also, the EC50 is 3.66 µM (active) in the series with Streptococcus, 0.825 µM (active) in series [13], 0.894 µM (active) in series [14] and > 60 µM (inconclusive) in [15].
`Cc1c(C(=O)O)cccc1-n1c(C)ccc1C`: on NS3, the IC50 was 34.5 µM (inactive).
For `CCCc1cc(=O)oc2cc(OCc3ccc(C(=O)O)o3)ccc12`, in [16], the IC50 is 2.44 µM (active).
Turning to `Cc1c(C(=O)C2=C(O)C(=O)N(CCN3CCOCC3)C2c2ccco2)cnn1-c1ccccc1` (stereo not drawn), the IC50 in [17] was 21.1 µM (inactive).
Take `Oc1ccc(CCNC(c2ccccc2)c2ccccc2)cc1O`: the IC50 in [18] was 17 µM (inactive).

Source of the values: ChEMBL document CHEMBL1201862, “PubChem BioAssay data set” (2004).
